# How the values were obtained:
# [1] = oral dosing; cited from earlier work
# [2] = Plasma stability, rat plasma (HPLC-MS); assay type: in vitro ADME; conditions: 10 μM, 37° C.
# Procedure, shortened: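 Rat plasma incubations were sampled at 0, 15, 120, 480 and 1440 min. For dog, monkey and human plasma, compounds at 2 μM (1% final solvent) were incubated at 37 °C and sampled at 0, 10, 30, 60 and 120 min. Duplicates; % parent remaining measured by HPLC-MS.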
# [3] = Plasma stability, dog plasma (HPLC-MS); assay type: in vitro ADME; conditions: 2 μM, 37° C.
# Method: (§1) Plasma stability determination of the test compounds in rat, dog, cynomolgus monkey and human plasma is performed using HPLC-MS. For rat, incubations are carried out in 96-well polypropylene plates in 5 aliquots of 70 μL each (one for each time point). […] Five time points are analyzed (0, 15, 120, 480 and 1440 min). For dog, monkey and human, test compounds (2 μM, final solvent concentration 1%) were also incubated at 37° C. and analyzed at five time points (0, 10, 30, 60 and 120 min). All incubations are performed in duplicates. The samples are analyzed by HPLC-MS. The percentage of parent compound remaining after incubation in plasma is determined.
# [4] = Plasma stability, human plasma (HPLC-MS); assay type: in vitro ADME; conditions: 2 μM, 37° C.
# Method: as §1, with “For dog, monkey and human, test compounds (2 μM, final solvent concentration 1%) were also incubated at 37° C. and analyzed at five time points (0, 10, 30, 60 and 120 min).” left out
# [5] = Liver S9 fraction stability, dog; assay type: in vitro ADME; conditions: 2 μM, 1.0 mg/ml S9 protein, 37° C.
# Method: (§2) Liver S9 fraction stability determination of the test compounds in dog, cynomolgus monkey and human is performed using HPLC-MS. Test compound (2 μM, 0.1% DMSO, 1% Methanol final concentration) was assessed for stability in a 50 μl phosphate buffer containing 1.0 mg/ml S9 protein from each of the three species and 5 mM D-saccharic acid-1, 4-lactone. Samples were incubated at 37° C. for 60 minutes and the % compound remaining was assessed.
# [6] = Clinical observations for dogs in pharmacokinetic studies; assay type: in vivo, Beagle dogs; conditions: 48 mg/kg DeepIM
# Procedure, shortened: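 Body weight checked weekly and used on dosing morning to set volume. Formulation (400 mg base equivalents/ml, sesame oil with 1% benzyl alcohol, unless otherwise specified) given by deep intramuscular injection into thigh muscle under propofol (6 mg/kg IV) sedation, vehicle into the opposite side; sites may rotate on repeat dosing.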
# [7] = Liver S9 fraction stability, cynomolgus monkey; assay type: in vitro ADME; conditions: 2 μM, 1.0 mg/ml S9 protein, 37° C.
# Method: as §2
# [8] = Plasma stability, cynomolgus monkey plasma (HPLC-MS); assay type: in vitro ADME; conditions: 2 μM, 37° C., 0 min
# Method: as §1, with “For dog, monkey and human, test compounds (2 μM, final solvent concentration 1%) were also incubated at 37° C. and analyzed at five time points (0, 10, 30, 60 and 120 min).” left out
# [9] = Liver S9 fraction stability, human; assay type: in vitro ADME; conditions: 2 μM, 1.0 mg/ml S9 protein, 37° C.
# Method: as §2
# [10] = Rat pharmacokinetic studies, intramuscular administration; assay type: in vivo, male Sprague Dawley Rats; conditions: rat IM 0.80 mg/kg, saline
# Method: The purpose of this study is to determine the pharmacokinetics of test compounds in plasma, following intramuscular administration to male Sprague Dawley Rats (n=3, unless otherwise specified).
# The dose formulation of 400 mg base equivalents/ml in sesame oil+1% benzyl alcohol (unless otherwise specified) was administered by intramuscular injection. The dose volume was determined by the animals' body weight determined on the morning of dosing day.
# Each collected blood sample was centrifuged for 4 minutes at 4° C. and 10000 rpm for plasma collection. Plasma was collected and transferred into a pre-labeled PP tube in dry ice at each time point and precipitated immediately using ACN at a ratio of 1:4 (plasma:ACN). Centrifuged again (10 minutes, 12000 rpm) and obtain the supernatant.
# LC-MS/MS methods for the quantitative determination of test compound in biological matrix were developed. […] The sample analysis was performed concurrently with a set of calibration standards and two sets of QC samples using the LC-MS/MS method.
# Plasma concentration versus time data was analyzed by non-compartmental approaches using the Phoenix WinNonlin 6.3 software program. Cmax, Tmax, T1/2, AUC(0-t), AUC(0-inf), MRT(0-t), MRT(0-inf) and graphs of plasma concentration versus time profile were prepared.
structure (smiles),measurement,setting,value
Oc1ccc2c3c1O[C@H]1[C@H](O)CC[C@@]4(O)[C@@H](C2)N(CC2CC2)CC[C@]314 [6-β-naltrexol],mean elimination half-life,[1],thirteen
"C=C1CC[C@@]2(O)C3Cc4ccc(OCOC(=O)OCCCCCCCCCCCC)c5c4[C@@]2(CCN3CC2CC2)[C@H]1O5 [Compound 24, (((4aS,7aS,12bS)-3-(cyclopropylmethyl)-4a-hydroxy-7-methylene-2,3,4,4a,5,6,7,7a-octahydro-1H-4,12-methanobenzofuro[3,2-e]isoquinolin-9-yl)oxy)methyl dodecyl carbonate]","% remaining at time point in minutes, 0 min",[2],100%
same,"% remaining at time point in minutes, 15 min",[2]; 15 min,32%
same,"% remaining at time point in minutes, 480 min",[2],8.2%
same,"% remaining at time point in minutes, 1440 min",[2],3%
same,"% remaining at time point in minutes, 0 min",[3],100%
same,"% remaining at time point in minutes, 0 min",[4],100%
same,"% remaining at time point in minutes, 15 min",[4]; 15 min,94%
same,"Liver S9 Fraction Stability, % remaining at 60 minutes, Dog",[5],3.6%
same,BT,"[6]; dog D1501, 24 hr",38.8
same,BT,"[6]; dog D1501, 96 hr",limb/BT: 39.2
same,BT,"[6]; dog D1501, 120 hr",39.2
same,BT,"[6]; dog D1501, 144 hr",39.6
same,BT,"[6]; dog D1501, 192 hr",calf/BT: 39.0
same,BT,"[6]; dog D1501, 216 hr",8 * 5 cm/BT: 39.0
same,BT,"[6]; dog D1501, 240 hr",8 * 5 cm/BT: 39.0
same,BT,"[6]; dog D1501, 264 hr",6 * 5 cm/BT: 38.9
same,BT,"[6]; dog D1501, 288 hr",6 * 5 cm/BT: 38.9
same,BT,"[6]; dog D1501, […]",39.6
same,BT,"[6]; dog D1502, 96 hr",groin/red/BT: 38.3
same,BT,"[6]; dog D1502, 120 hr",groin/red/BT: 38.7
same,BT,"[6]; dog D1502, 144 hr",groin/red/BT: 38.3
same,BT,"[6]; dog D1502, 192 hr",groin/red/BT: 38.5
same,BT,"[6]; dog D1502, 216 hr",groin/red/BT: 38.4
same,BT,"[6]; dog D1502, 240 hr",leg/red/BT: 38.9
same,BT,"[6]; dog D1502, 264 hr",leg/red/BT: 38.3
same,BT,"[6]; dog D1502, 288 hr",leg/red/BT: 38.5
same,BT,"[6]; dog D1502, […]",groin/red/BT: 38.4
same,BT,"[6]; third dog (head prints D1502), 144 hr",8 * 8 cm/BT: 39.5
same,BT,"[6]; third dog (head prints D1502), 192 hr",8 * 8 cm/BT: 38.0
same,BT,"[6]; third dog (head prints D1502), 216 hr",8 * 8 cm/BT: 38.8
same,BT,"[6]; third dog (head prints D1502), 240 hr",8 * 8 cm/BT: 39.2
same,BT,"[6]; third dog (head prints D1502), 264 hr",8 * 8 cm/BT: 38.9
same,BT,"[6]; third dog (head prints D1502), 288 hr",8 * 8 cm/BT: 38.8
same,BT,"[6]; third dog (head prints D1502), […]",8 * 8 cm/BT: 39.3
same,"Liver S9 Fraction Stability, % remaining at 60 minutes, Monkey",[7],3%
same,"% remaining at time point in minutes, 0 min",[8],100%
same,"Liver S9 Fraction Stability, % remaining at 60 minutes, Human",[9],3.5%
"C=C1CC[C@@]2(O)C3Cc4ccc(OC(=O)OCCCCCCCCCCCC)c5c4[C@@]2(CCN3CC2CC2)[C@H]1O5 [Compound 6, (4aS,7aS,12bS)-3-(cyclopropylmethyl)-4a-hydroxy-7-methylene-2,3,4,4a,5,6,7,7a-octahydro-1H-4,12-methanobenzofuro[3,2-e]isoquinolin-9-yl dodecyl carbonate]","% remaining at time point in minutes, 0 min",[2],100%
same,"% remaining at time point in minutes, 120 min",[2]; 120 min,7.6%
same,"% remaining at time point in minutes, 480 min",[2],4%
same,"% remaining at time point in minutes, 1440 min",[2],1.6%
same,"% remaining at time point in minutes, 0 min",[3],100%
same,"% remaining at time point in minutes, 0 min",[4],100%
same,"Liver S9 Fraction Stability, % remaining at 60 minutes, Monkey",[7],0%
same,"% remaining at time point in minutes, 0 min",[8],100%
same,"Liver S9 Fraction Stability, % remaining at 60 minutes, Human",[9],5.3%
C=C1CC[C@@]2(O)[C@H]3Cc4ccc(O)c5c4[C@@]2(CCN3CC2CC2)[C@H]1O5.Cl [Nalmefene HCl-IR],AUC0-inf (ng · h/mL) nalmefene,[10],66.0 ng·h/mL
same,Terminal Half-life t1/2 (hour) nalmefene,[10],0.87 h
